Results: patent US20240293464A1, “TISSUE REPAIR” (priority 2021, published 2024)

Legend:
Assay type in all cases: in vivo, horse
tendon/ligament injuries = experiment: Single armed pilot trial in equine connective tissue injuries, lesion size by ultrasonography (Example 7)
Method: The time since injury of each horse was noted. […] Side effects and tolerability were also recorded.
14 horses with 15 injured limbs were enrolled in the study between March and May 2021. The injuries comprised 9 tendon and 6 ligament injuries, with 12 injuries on the left side of the horse and 3 on the right. The mean time since injury was ˜ 12 months. The tendon injuries comprised 2 acute injuries (<1 month old) and 7 chronic injuries, with a mean time since injury of 13.1 months, and a range of 9-20 months. The ligamentous injuries comprised 6 chronic injuries, with a mean time since injury of 14.3 months and a range of 4-30 months.
All statistical analysis was performed on SPSS v27. Missing values were handled by last observation carried forward. Descriptive statistics were used to describe baseline and follow-up values. The results were first tested for normality using the Shapiro-Wilk test. The results at weeks 3, 5 and 7 were then analysed compared to baseline using two-tailed paired Student's t-tests once normality was proven. One-tailed Pearson correlation test was performed to determine if outcomes was correlated with time since injury as we hypothesise that older, more established injuries may benefit less from our supplementation.

injured tendon/ligament = experiment: Effect of activity level on connective tissue improvement (Example 11); details: week 7, full-treatment doses
Method: The vitamin A supplement used, its administration, and the subjects of the investigation comprise those of Example 7. Improvement (as a % of baseline) of the injured tendon/ligament was performed at 7 weeks into the trial. All 14 horses were administered full-treatment doses of vitamin A supplement from week 0 to week 7 whilst being put to work. 7 horses were put on light/no work and 7 on full work. The allocation of each horse into one of the two groups was determined by the respective owner of the horse, who decided based on whether they could afford for the horse to be put on light work (and thus investigate the isolated effect of vitamin A supplement on lesion progression) or whether the horse was required to be put back to full work.

tendon/ligament lesions = experiment: Equine tendon/ligament lesions from original injury through treatment (Example 8); details: oral 160,000 IU once per day
Method: Side effects and tolerability were also recorded. The administration of vitamin A supplement, and the vitamin A supplement used, were the same as that of Example 7. 7 horses with 7 injured limbs were enrolled in the study between March and May 2021. The injuries comprised 3 tendon and 4 ligament injuries. The inclusion criteria were polo horses with diagnosed tendon/ligament injuries regardless of time since injury. The exclusion criteria were horses with acute connective tissue injuries. All statistical analysis was performed on SPSS v27. Missing values were handled by last observation carried forward. Descriptive statistics were used to describe baseline and follow-up values. The results were first tested for normality using the Shapiro-Wilk test. The results at weeks 3, 5 and 7 were then analysed compared to baseline using two-tailed paired Student's t-tests once normality was proven.

Tendon injury = experiment: Echogenicity ratio of tendon lesion or injured tendon to adjacent healthy tendon (Example 9)
Excerpt: Structures composed of different tissue will have different echogenicities. The health of a tissue such as a tendon can be assessed by comparing the echogenicity of the tissue with that of a corresponding healthy tissue. Healthy tendons comprising native tissue and normal architecture are usually hyperechoic and appear white on the sonogram; they are capable of reflecting ultrasound that is cast over the tissue. An injured tendon comprising a lesion will appear as less hyperechoic, and more hypoechoic as tendon fibers are interrupted and defects are usually filled with fluid, blood, or fat. Severe lesions will be anechoic, and will display as completely dark on the sonogram. […] The echogenicity of a tendon lesion was assessed by comparing grey scale statistics of the tendon lesion with the values of healthy adjacent tendon tissue (FIG. 18(b)). Due to equine anatomy, there is always a directly adjacent healthy tendon to use as a control (ultrasonography is […] by depth of tissue). The statistics comprised determining the mean pixel intensity at a number of random points on the lesion and the healthy tendon, and calculating a mean value for the echogenicity of each tissue. A ratio of mean echnogenicity of the lesion and the healthy tissue was determined to assess the extent of damage/healing at the lesion. Vitamin A supplement used, its administration, and the subjects investigated, comprise those of Example 7.

[1] = tested on: connective tissue injuries (tendon/ligament lesions); experiment: Post-treatment maintenance dose, double-blind randomised placebo-controlled trial (Example 10)
Excerpt: Maintenance dose of vitamin A palmitate (retinyl palmitate) in a vehicle, delivered in dry feed at 8,000 IU per kg feed dry matter.
The methodology and subjects of the investigation comprise those of Example 7.
The trial was a double-blind randomised controlled trial.

In the case of `CCCCCCCCCCCCCCCC(=O)OC/C=C(C)/C=C/C=C(C)/C=C/C1=C(C)CCCC1(C)C` [vitamin A supplement, Vitamin A palmitate], the Mean lesion size (tendon/ligament injuries; baseline, 15 injuries) is reported as 41.44%, the “Percentage improvement, baseline to week 7” value (tendon/ligament injuries; outlier at 20 months since injury, complete avulsion of the ligament) is reported as −25% and the “Percentage improvement, baseline to week 7” value (tendon/ligament injuries; two outlier subjects at 12 months since injury) is reported as 100%. It also gave a Mean lesion size (tendon/ligament injuries; week 3, oral 160,000 IU once per day, p=0.169 vs baseline) of 35.87%, a Mean lesion size (tendon/ligament injuries; week 5, oral 160,000 IU once per day, p<0.001 vs baseline) of 28.37% and a Mean lesion size (tendon/ligament injuries; week 7, oral 160,000 IU once per day, p=0.006 vs baseline) of 31.73%. For the same compound, the Improvement from baseline (injured tendon/ligament; horses on full work (n=7)) was 45.05%, the Improvement from baseline (injured tendon/ligament; horses on light or no work (n=7)) was 30.35% and the “Change in ligament lesion size, baseline to week 7” value (tendon/ligament lesions; ligaments, outlier excluded (n=3)) was “reduction in the size of two of the three lesions”. For the same compound, the “Mean improvement in lesion size, baseline to week 7” value (tendon/ligament lesions; tendons n=3, chronic injuries, p=0.04) was 30.62%, the “% increase of mean echogenicity ratio (lesion/healthy tendon)” value (Tendon injury; baseline to week 7) was 32.7% and the “Mean echogenicity ratio of tendon lesion to adjacent healthy tendon” value (Tendon injury; baseline, 1 = perfect regeneration of native tendon) was 0.52. The “Mean echogenicity ratio of injured tendon (area of lesion excluded) to adjacent healthy tendon” value (Tendon injury; week 0) was 0.76, the “Mean echogenicity ratio of injured tendon (area of lesion excluded) to adjacent healthy tendon” value (Tendon injury; week 7, oral 160,000 IU once per day) was 0.82 and the “Mean echogenicity ratio of tendon lesion to adjacent healthy tendon” value (Tendon injury; week 7, oral 160,000 IU once per day, 1 = perfect regeneration) was 0.69. For the same compound, the “Change in lesion size from week 7 to week 14, intragroup” value ([1]; maintenance dose 80,000 IU/day, compared with placebo group) was −24.5%, the “Mean lesion size of the maintenance dose group” value ([1]; week 14, after 7 weeks of 80,000 IU/day following 7 weeks of full dose, 31.73% at week 7) was about 20.00% and the “Lesion health on ultrasonogram in one re-injured subject” value ([1]; week 14, after 7 weeks of maintenance dose, FIG. 21) was “the health of this particular lesion deteriorated”.
